Values joined by “and” are separate entries in the source; they are usually repeats but may differ in a detail not shown here. Identical values can stand only once. Like-named read-outs stand apart in the source and are kept apart here.
Tests used:
[1] = test system: SARS-CoV-2 replicon system (pBAC-SARS-CoV-2-Replicon-Luc); experiment: microbe, parasite or virus in culture; assay type: cell-based; conditions: Severe acute respiratory syndrome coronavirus 2, HEK-293T, 60 h
[2] = test system: SARS-CoV-2 (B.1); experiment: Anti-SARS-CoV-2 activity in Vero E6 cells (viral yield by qRT-PCR); assay type: cell-based
[3] = test system: SARS-CoV-2 (Beta, B.1.351); experiment: microbe, parasite or virus in culture; assay type: cell-based; conditions: for EC50: read-out: EC50 in Vero E6 cells, SARS-CoV-2 (Beta, B.1.351); for % Inhibition: beta
[4] = test system: SARS-CoV-2 (Delta, B.1.617.2); experiment: microbe, parasite or virus in culture; assay type: cell-based; conditions: for % Inhibition: delta
[5] = test system: SARS-CoV-2 (B.1) in Huh7 cells; experiment: Anti-SARS-CoV-2 activity in Huh7 cells (viral yield by qRT-PCR); assay type: cell-based; conditions: B.1, MOI 0.05, 48 h
[6] = CCK-8 cell viability assay; assay type: cell-based, African green monkey; conditions: African green monkey; Vero E6 cells, 48 h, CCK8
How it was run: (§1)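 Vero E6 cells, 20,000/well, exposed to compound at 0–200 μM (0, 0.01, 0.1, 1, 5, 10, 50, 75, 100, 200 μM) for 48 h; viability read by CCK-8 and expressed as percentage versus drug concentration, mean ± SD.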

[7] = test system: Vero E6 cells; experiment: CCK-8 cell viability assay; assay type: cell-based, African green monkey; conditions: individual replicate values, Fig.S4
How it was run: as §1

[8] = test system: SARS-CoV-2 (Omicron, B.1.1.529); experiment: microbe, parasite or virus in culture
[9] = Severe acute respiratory syndrome coronavirus 2, Vero C1008, read-out: EC90 (Confidence 95%)

## N#C[C@@]1(c2ccc3c(N)ncnn23)O[C@H](CO)[C@@H](O)[C@H]1O [GS-441524, reference compound]
[1]; read-out: EC50 (Confidence 95%), replicon
  EC50: 955 nM
[1]; read-out: EC90 (Confidence 95%), replicon
  EC90: 3250 nM
[2]; 2 μM, replicates, sheet Fig.S3
  % Inhibition: 71.478%
[2]; 5 μM, replicates, sheet Fig.S3
  % Inhibition: 85.4877%
[2]; 10 μM, replicates, sheet Fig.S3
  % Inhibition: 86.8803%
[2]; B.1, 1 uM, Vero E6, replicates, 1 µM
  % Inhibition: 3.349%
[2]; B.1, 2 uM, Vero E6, replicates, 2 µM
  % Inhibition: 80.3269%
[2]; B.1, 5 uM, Vero E6, replicates, 5 µM
  % Inhibition: 96.5344%
[2]; B.1, 10 uM, Vero E6, replicates, 10 µM
  % Inhibition: 98.7837%
[2]; B.1, 50 uM, Vero E6, replicates, 50 µM
  % Inhibition: 98.8136%
[2]; Severe acute respiratory syndrome coronavirus 2, Vero C1008, 0.1 μM, replicates, sheet Fig.S3
  inhibition at 0.1 µM: 0%
[2]; Severe acute respiratory syndrome coronavirus 2, Vero C1008, 0.5 μM, replicates, sheet Fig.S3
  inhibition at 0.5 µM: 0%
[2]; Severe acute respiratory syndrome coronavirus 2, Vero C1008, 1 μM, replicates, sheet Fig.S3
  inhibition at 1 µM: 0%
[2]; Severe acute respiratory syndrome coronavirus 2, Vero C1008, 2 μM, replicates, sheet Fig.S3
  inhibition at 2 µM: 72.7%
[2]; Severe acute respiratory syndrome coronavirus 2, Vero C1008, 5 μM, replicates, sheet Fig.S3
  inhibition at 5 µM: 85.9%
[2]; Severe acute respiratory syndrome coronavirus 2, Vero C1008, 10 μM, replicates, sheet Fig.S3
  inhibition at 10 µM: 90.7%
[2]; Severe acute respiratory syndrome coronavirus 2, Vero C1008, B.1, 0.01 uM, Vero E6, replicates
  inhibition at 0.01 µM: 0%
[2]; Severe acute respiratory syndrome coronavirus 2, Vero C1008, B.1, 0.1 uM, Vero E6, replicates
  inhibition at 0.1 µM: 0%
[2]; Severe acute respiratory syndrome coronavirus 2, Vero C1008, B.1, 0.25 uM, Vero E6, replicates
  inhibition at 0.25 µM: 0%
[2]; Severe acute respiratory syndrome coronavirus 2, Vero C1008, B.1, 0.5 uM, Vero E6, replicates
  inhibition at 0.5 µM: 0%
[2]; Severe acute respiratory syndrome coronavirus 2, Vero C1008, B.1, 2 uM, Vero E6, replicates
  inhibition at 2 µM: 72.6%
[2]; Severe acute respiratory syndrome coronavirus 2, Vero C1008, B.1, 5 uM, Vero E6, replicates
  inhibition at 5 µM: 95.7%
[2]; Severe acute respiratory syndrome coronavirus 2, Vero C1008, B.1, 10 uM, Vero E6, replicates
  inhibition at 10 µM: 98.5%
[2]; Severe acute respiratory syndrome coronavirus 2, Vero C1008, B.1, 50 uM, Vero E6, replicates
  inhibition at 50 µM: 98.7%
[2]; [9]
  EC90: 2390 nM
[2]; Severe acute respiratory syndrome coronavirus 2, Vero C1008, MOI 0.05, 48 h
  EC50: 1710 nM
[3]; Severe acute respiratory syndrome coronavirus 2, Vero C1008, 48 h
  EC50: 1340 nM
[3]; Severe acute respiratory syndrome coronavirus 2, Vero C1008, beta, 0.01 uM, Vero E6, replicates
  inhibition at 0.01 µM: 0%
[3]; Severe acute respiratory syndrome coronavirus 2, Vero C1008, beta, 0.1 uM, Vero E6, replicates
  inhibition at 0.1 µM: 0%
[3]; Severe acute respiratory syndrome coronavirus 2, Vero C1008, beta, 0.25 uM, Vero E6, replicates
  inhibition at 0.25 µM: 0%
[3]; Severe acute respiratory syndrome coronavirus 2, Vero C1008, beta, 0.5 uM, Vero E6, replicates
  inhibition at 0.5 µM: 0%
[3]; Severe acute respiratory syndrome coronavirus 2, Vero C1008, beta, 1 uM, Vero E6, replicates
  inhibition at 1 µM: 21.8%
[3]; Severe acute respiratory syndrome coronavirus 2, Vero C1008, beta, 2 uM, Vero E6, replicates
  inhibition at 2 µM: 85.3%
[3]; Severe acute respiratory syndrome coronavirus 2, Vero C1008, beta, 5 uM, Vero E6, replicates
  inhibition at 5 µM: 99.5%
[3]; Severe acute respiratory syndrome coronavirus 2, Vero C1008, beta, 10 uM, Vero E6, replicates
  inhibition at 10 µM: 99.9%
[3]; Severe acute respiratory syndrome coronavirus 2, Vero C1008, beta, 50 uM, Vero E6, replicates
  inhibition at 50 µM: 99.9%
[3]; Severe acute respiratory syndrome coronavirus 2, Vero C1008, read-out: EC90 (Confidence 95%), Vero-E6, Beta B.1.351
  EC90: 2320 nM
[3]; 1 uM, Vero E6, replicates
  % Inhibition: 23.8494%
[3]; 2 uM, Vero E6, replicates
  % Inhibition: 80.342%
[3]; 5 uM, Vero E6, replicates
  % Inhibition: 99.4744%
[3]; 10 uM, Vero E6, replicates
  % Inhibition: 99.9464%
[3]; 50 uM, Vero E6, replicates
  % Inhibition: 99.9252%
[3]
  EC50: 1350 nM
[4]; Severe acute respiratory syndrome coronavirus 2, Vero C1008, 48 h, read-out: EC50 in Vero E6 cells, SARS-CoV-2 (Delta, B.1.617.2)
  EC50: 957 nM
[4]; Severe acute respiratory syndrome coronavirus 2, Vero C1008, delta, 0.01 uM, Vero E6, replicates
  inhibition at 0.01 µM: 0%
[4]; Severe acute respiratory syndrome coronavirus 2, Vero C1008, delta, 0.1 uM, Vero E6, replicates
  inhibition at 0.1 µM: 0%
[4]; Severe acute respiratory syndrome coronavirus 2, Vero C1008, delta, 0.25 uM, Vero E6, replicates
  inhibition at 0.25 µM: 0%
[4]; Severe acute respiratory syndrome coronavirus 2, Vero C1008, delta, 0.5 uM, Vero E6, replicates
  inhibition at 0.5 µM: 0%
[4]; Severe acute respiratory syndrome coronavirus 2, Vero C1008, delta, 2 uM, Vero E6, replicates
  inhibition at 2 µM: 94.9%
[4]; Severe acute respiratory syndrome coronavirus 2, Vero C1008, delta, 5 uM, Vero E6, replicates
  inhibition at 5 µM: 97%
[4]; Severe acute respiratory syndrome coronavirus 2, Vero C1008, delta, 10 uM, Vero E6, replicates
  inhibition at 10 µM: 98.7%
[4]; Severe acute respiratory syndrome coronavirus 2, Vero C1008, delta, 50 uM, Vero E6, replicates
  inhibition at 50 µM: 99.8%
[4]; Severe acute respiratory syndrome coronavirus 2, Vero C1008, read-out: EC90 (Confidence 95%), Vero-E6, Delta B.1.617.2
  EC90: 1360 nM
[4]; 1 uM, Vero E6, replicates
  % Inhibition: 66.6762% and 46.4634%
[4]; 2 uM, Vero E6, replicates
  % Inhibition: 93.4361%
[4]; 5 uM, Vero E6, replicates
  % Inhibition: 94.7905%
[4]; 10 uM, Vero E6, replicates
  % Inhibition: 95.0345%
[4]; 50 uM, Vero E6, replicates
  % Inhibition: 98.9856%
[5]; Severe acute respiratory syndrome coronavirus 2, Huh-7, read-out: EC50 (Confidence 95%) in Huh7 cells
  EC50: 1760 nM
[5]; Severe acute respiratory syndrome coronavirus 2, Huh-7, read-out: EC90 (Confidence 95%) in Huh7 cells
  EC90: 2080 nM
[6]
  CC50 at 48 h: > 50000 nM
[7]; 0.1 μM compound, 0.1 µM
  cell viability (% of control): 105.342 % of control
[7]; 1 μM compound, 1 µM
  cell viability (% of control): 107.061 % of control and 113.737 % of control
[7]; 2 μM compound, 2 µM
  cell viability (% of control): 117.342 % of control and 112.354 % of control and 107.242 % of control
[7]; 5 μM compound, 5 µM
  cell viability (% of control): 121.028 % of control and 116.731 % of control
[7]; 10 μM compound, 10 µM
  cell viability (% of control): 98.5418 % of control and 94.9348 % of control and 94.7813 % of control
[7]; 20 μM compound, 20 µM
  cell viability (% of control): 98.3543 % of control and 95.3243 % of control and 95.3532 % of control
[7]; 50 μM compound, 50 µM
  cell viability (% of control): 93.3231 % of control and 94.7045 % of control and 94.3208 % of control
[8]; Severe acute respiratory syndrome coronavirus 2, Vero C1008, 48 h, read-out: EC50 in Vero E6 cells, SARS-CoV-2 (Omicron, B.1.1.529)
  EC50: 190 nM
[8]; Severe acute respiratory syndrome coronavirus 2, Vero C1008, Omicon, 0.069 uM, Vero E6, replicates
  inhibition at 0.069 µM: 0%
[8]; Severe acute respiratory syndrome coronavirus 2, Vero C1008, Omicon, 0.625 uM, Vero E6, replicates
  inhibition at 0.625 µM: 96.5%
[8]; Severe acute respiratory syndrome coronavirus 2, Vero C1008, Omicon, 2.5 uM, Vero E6, replicates
  inhibition at 2.5 µM: 100%
[8]; Severe acute respiratory syndrome coronavirus 2, Vero C1008, Omicon, 5 uM, Vero E6, replicates
  inhibition at 5 µM: 100%
[8]; Severe acute respiratory syndrome coronavirus 2, Vero C1008, Omicon, 10 uM, Vero E6, replicates
  inhibition at 10 µM: 100%
[8]; [9]
  EC90: 363 nM
